Data: patent US8518980B2, “Treatment of Duchenne muscular dystrophy” (Summit Corporation PLC, priority 2006, dated 2013)

Test system: Utrophin A promoter linked to a luciferase reporter gene (H2K/mdx/Utro A reporter cell line)
Assay: Luciferase reporter assay (murine H2K cells)
Details: Mus musculus, H2K mdx

First: COc1ccc(-c2nc3cc(N)ccc3o2)cc1OC [Example 515, 2-(3,4-dimethoxyphenyl)benzo[d]oxazol-5-amine]
Second: COc1ccc(-c2nc3cc([N+](=O)[O-])ccc3o2)cc1OC [Example 537, 2-(3,4-dimethoxyphenyl)-5-nitrobenzo[d]oxazole]
The activity at 10 µM of the first is higher: 201 to 300% for the first, less than 200% for the second.

Compared with `CCOc1ccc(-c2nc3cc(N)ccc3o2)cc1` [Example 549, 2-(4-ethoxyphenyl)benzo[d]oxazol-5-amine], `Nc1ccc2oc(-c3ccc(O)cc3)nc2c1` [Example 496, 4-(5-aminobenzo[d]oxazol-2-yl)phenol] is higher in activity at 10 µM: less than 200% for the first, 201 to 300% for the second.

Compared with `O=[N+]([O-])c1cc(-c2nc3ccccc3s2)ccc1Cl` [Example 523, 2-(4-chloro-3-nitrophenyl)benzo[d]thiazole], `COc1ccc(-c2nc3ccccc3s2)cc1N` [Example 597, 5-(Benzo[d]thiazol-2-yl)-2-methoxyaniline] is higher in activity at 10 µM: less than 200% for the first, 301 to 400% for the second.

First: Cc1cc2nc(-c3ccc(N)cc3O)oc2cc1C [Example 610, 5-Amino-2-(5,6-dimethylbenzo[d]oxazol-2-yl)phenol]
Second: Cc1ccc(-c2nc3cc(N)ccc3o2)c(Cl)c1 [Example 527, 2-(2-chloro-4-methylphenyl)benzo[d]oxazol-5-amine]
The activity at 10 µM of the first is higher: greater than 401% for the first, 201 to 300% for the second.

Compared with `COc1ccc(-c2nc3ccccc3s2)cc1NC(C)=O` [Example 542, N-(5-(benzo[d]thiazol-2-yl)-2-methoxyphenyl)acetamide], `Cc1ccc2nc(-c3ccc(O)cc3)sc2c1` [Example 643, 4-(6-methylbenzo[d]thiazol-2-yl)phenol] is higher in activity at 10 µM: 201 to 300% for the first, 301 to 400% for the second.

First: Cc1ccc2oc(-c3ccc(Cl)c(NC(=O)c4ccco4)c3)nc2c1 [Example 677, N-(2-chloro-5-(5-methylbenzo[d]oxazol-2-yl)phenyl)furan-2-carboxamide]
Second: Cc1ccc2[nH]c(-c3ccc(NC(=O)c4ccco4)cc3)nc2c1 [Example 580, N-(4-(5-Methyl-1H-benzo[d]imidazol-2-yl)phenyl)furan-2-carboxamide]
The activity at 10 µM of the first is lower: 201 to 300% for the first, 301 to 400% for the second.

First: CCCc1nc2cc(S(=O)(=O)CC)ccc2o1 [Example 571, 5-(ethylsulfonyl)-2-propylbenzo[d]oxazole]
Second: CN(C)c1ccc(-c2nc3cc(N)ccc3o2)cc1 [Example 491, 2-(4-(dimethylamino)phenyl)benzo[d]oxazol-5-amine]
The activity at 10 µM of the first is lower: less than 200% for the first, 201 to 300% for the second.

First: CCNC(=O)Nc1ccc2[nH]c(C(C)(C)C)cc2c1 [Example 576, 1-(2-tert-butyl-1H-indol-5-yl)-3-ethylurea]
Second: Cc1ccc(-c2nc3ccccc3[nH]2)cc1NC(=O)C(F)(F)F [Example 568, N-(5-(1H-benzo[d]imidazol-2-yl)-2-methylphenyl)-2,2,2-trifluoroacetamide]
The activity at 10 µM of the first is lower: less than 200% for the first, 301 to 400% for the second.

`Nc1ccc(-c2nc3ccccc3o2)cc1` [Example 478, 4-(benzo[d]oxazol-2-yl)aniline] and `COc1ccc(-c2nc3cc(C)ccc3o2)cc1` [Example 675, 2-(4-methoxyphenyl)-5-methylbenzo[d]oxazole] fall in the same range of activity at 10 µM: 201 to 300% for the first, 201 to 300% for the second.

Compared with `Cc1cc(C)cc(-c2nc3cc(N)ccc3o2)c1` [Example 482, 2-(3,5-dimethylphenyl)benzo[d]oxazol-5-amine], `Cc1nn(-c2nc3ccccc3[nH]2)c(N)c1-c1ccccc1` [Example 659, 1-(1H-benzo[d]imidazol-2-yl)-3-methyl-4-phenyl-1H-pyrazol-5-amine] is higher in activity at 10 µM: less than 200% for the first, 301 to 400% for the second.

First: O=C(Nc1ccc(-c2nc3ccccc3[nH]2)cc1)c1ccco1 [Example 562, N-(4-(1H-benzo[d]imidazol-2-yl)phenyl)furan-2-carboxamide]
Second: O=C(Nc1cccc(-c2nc3ccccc3[nH]2)c1)c1ccccc1 [Example 464, N-(3-(1H-benzo[d]imidazol-2-yl)phenyl)benzamide]
The activity at 10 µM of the first is higher: 301 to 400% for the first, less than 200% for the second.

`Cn1c(COc2ccccc2)nc2ccccc21` [Example 474, 1-methyl-2-(phenoxymethyl)-1H-benzo[d]imidazole] gave an activity at 10 µM of less than 200%.
